The structures appear in SMILES notation. Where two headings read alike, the source gives them in different places.

The results in this text go back to patent US20250228239A1, “MOLECULES HAVING PESTICIDAL UTILITY, AND INTERMEDIATES, COMPOSITIONS, AND PROCESSES, RELATED THERETO” (priority 2024, published 2025).

Common to all, as to type: in vivo
For data set [1], the system named is Beet Armyworm (Spodoptera exigua, LAPHEG). The data set is described as follows: Bioassays on Beet Armyworm (BAW), 128-well diet tray assay. Particulars: Spodoptera exigua. The method, boiled down: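 Eight diet wells per compound were treated at 50 μg/cm^2 (acetone-water 90:10), dried, then infested with 1–5 second-instar larvae each. After five to seven days at 25 °C under 14:10 photoperiod, mortality was scored and averaged across wells.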

Data set [2] relates to Cabbage Looper (Trichoplusia ni, TRIPNI). The data set is described as follows: Bioassays on Cabbage Looper (CL), 128-well diet tray assay. Particulars: Trichoplusia ni. In outline:
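One to five second-instar larvae per well on artificial diet surface-treated with 50 μg/cm^2 test molecule (applied in 90:10 acetone-water, dried). Held 5–7 days at 25° C, 14:10 light-dark; percent mortality recorded per well and averaged over eight wells.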

Data set [3] deals with Yellow Fever Mosquito (Aedes aegypti, AEDSAE). The settings on record: for YFM rating: Table ABC / ABC-DP rating. In outline:
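Compounds from DMSO master plates (4000 ppm stock) diluted in 90:10 water/acetone, then dispensed into six replicate plates and infested with ~1-day-old Aedes aegypti larvae in liver-powder water. Held covered at room temperature for 3 days; each well scored for larval mortality and graded on a rating scale.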

[4] abbreviates: Beet Armyworm, Table ABC / ABC-DP rating, read-out: BAW rating.
[5] abbreviates: Cabbage Looper, Table ABC / ABC-DP rating, read-out: CL rating.
The mark [6] stands for this setting: Table ABC: Biological Results, species BAW, read-out: BAW.
The mark [7] stands for this setting: Table ABC: Biological Results, species CL, read-out: CL.
Where [8] appears, read: Table ABC: Biological Results, species YFM.
[9] abbreviates: Beet Armyworm, rating class, read-out: BAW.
Setting [10] is: Cabbage Looper, rating class, read-out: CL.
The mark [11] stands for this setting: Yellow Fever Mosquito, rating class.

Regarding `O=C(NNc1cc(Cl)ccc1Cl)c1cc(NC(=O)[C@H]2[C@H](c3cc(Cl)cc(Cl)c3)C2(Cl)Cl)ccc1Cl` (relative stereo) [F2561, trans-2,2-Dichloro-N-(4-chloro-3-(2-(2,5-dichlorophenyl)hydrazine-1-carbonyl)phenyl)-3-(3,5-dichlorophenyl)cyclopropane-1-carboxamide], the pest or weed control at 50 µg/cm2 in data set [1] (setting [4]) and in data set [2] (setting [5]) was 50 to 100% each time. In data set [3] (Yellow Fever Mosquito), the YFM rating entry was “B (More than 0 – Less than 80)”.
Turning to `COc1c(F)cc(NC(=O)[C@H]2[C@H](c3ccc(F)c(Cl)c3)C2(Cl)Cl)cc1C(=O)NCC(F)(F)F` (relative stereo) [F2058, trans-5-(2,2-Dichloro-3-(3-chloro-4-fluorophenyl)cyclopropane-1-carboxamido)-3-fluoro-2-methoxy-N-(2,2,2-trifluoroethyl)benzamide], the pest or weed control at 50 µg/cm2 in data set [1] (setting [4]) and in data set [2] (setting [5]) was 50 to 100% each time. In addition, the YFM rating entry in data set [3] (Yellow Fever Mosquito) was “A (80–100)”.
Consider `O=C(NNc1cc(F)ccc1F)c1cc(NC(=O)[C@H]2[C@H](c3cc(Cl)cc(Cl)c3)C2(Cl)Cl)ccc1Cl` (relative stereo) [F2558, trans-2,2-Dichloro-N-(4-chloro-3-(2-(2,5-difluorophenyl)hydrazine-1-carbonyl)phenyl)-3-(3,5-dichlorophenyl)cyclopropane-1-carboxamide], for which the pest or weed control at 50 µg/cm2 in data set [1] (setting [4]) and in data set [2] (setting [5]) was 50 to 100% in each case. Moreover, the YFM rating result in data set [3] (Yellow Fever Mosquito) is given as “A (80–100)”.
As to `Nc1c(F)ccc(NC(=O)c2cc(NC(=O)[C@H]3[C@H](c4cc(F)c(Cl)c(C(F)(F)F)c4)C3(Cl)Cl)ccc2Cl)c1F` (relative stereo) [F1167, trans-N-(3-Amino-2,4-difluorophenyl)-2-chloro-5-(2,2-dichloro-3-(4-chloro-3-fluoro-5-(trifluoromethyl)phenyl)cyclopropane-1-carboxamido)benzamide], the pest or weed control at 50 µg/cm2 in data set [1] (setting [6]) and in data set [2] (setting [7]) was 50 to 100% each time. Further, the YFM result in data set [3] (setting [8]) was “A (80–100)”.
Regarding `Cc1c(NC(=O)c2cc(NC(=O)[C@H]3[C@H](c4ccc(F)c(C(F)(F)F)c4)C3(Cl)Cl)ccc2Cl)ccc(Br)c1[N+](=O)[O-]` [F1688, N-(4-Bromo-2-methyl-3-nitrophenyl)-2-chloro-5-((1R,3R)-2,2-dichloro-3-(4-fluoro-3-(trifluoromethyl)phenyl)cyclopropane-1-carboxamido)benzamide], the pest or weed control at 50 µg/cm2 in data set [1] (setting [9]) and in data set [2] (setting [10]) was 50 to 100% each time. In data set [3] (setting [11]), the YFM entry is “A (80–100)”.
As to `O=C(NN=Cc1cc(F)ccc1F)c1cc(NC(=O)[C@H]2[C@H](c3cc(Cl)cc(Cl)c3)C2(Cl)Cl)ccc1Cl` (relative stereo) [F3003, trans-2,2-Dichloro-N-(4-chloro-3-(2-(2,5-difluorobenzylidene)hydrazine-1-carbonyl)phenyl)-3-(3,5-dichlorophenyl)cyclopropane-1-carboxamide], the mortality at 50 µg/cm2 fell in the range of 50 to 100% in data set [1] (168 h, second instar larvae, 50 μg/cm^2 of test molecule on artificial diet, 25° C., five to seven days, average of eight wells, read-out: BAW % Control (or Mortality) rating) and 50 to 100% in data set [2] (168 h, second instar larvae, 50 μg/cm^2 of test molecule on artificial diet, 25° C., five to seven days, average of eight wells, read-out: CL % Control (or Mortality) rating). Further, the pest or weed control at 50 µg/cm2 in data set [1] (setting [4]) and in data set [2] (setting [5]) was 50 to 100% in each case. The YFM rating result in data set [3] (Yellow Fever Mosquito) is “A (80–100)”. For the same molecule, the “YFM % Control (or Mortality) rating” value in data set [3] (about 1 day-old larvae, 4000 ppm master solution diluted with 90:10 water/acetone, 15 μL per well plus 220 μL larval mixture, 3 days, mortality) was “A (80–100)”.
Turning to `O=C(COC(F)(F)F)Nc1c(F)ccc(NC(=O)c2cc(NC(=O)[C@H]3[C@H](c4cc(C(F)(F)F)cc(C(F)(F)F)c4)C3(Cl)Cl)ccc2Cl)c1F` (relative stereo) [F1804, trans-5-(3-(3,5-bis(Trifluoromethyl)phenyl)-2,2-dichlorocyclopropane-1-carboxamido)-2-chloro-N-(2,4-difluoro-3-(2-(trifluoromethoxy)acetamido)phenyl)benzamide], the pest or weed control at 50 µg/cm2 in data set [1] (setting [4]) and in data set [2] (setting [5]) was 50 to 100% each time. Moreover, the YFM rating entry in data set [3] (Yellow Fever Mosquito) is listed as “A (80–100)”.
For the molecule `O=C(NCC(F)(F)C(F)(F)F)c1cc(NC(=O)[C@H]2[C@H](c3ccc(F)c(Cl)c3)C2(Cl)Cl)cc(F)c1Cl` (relative stereo) [F2035, trans-2-Chloro-5-(2,2-dichloro-3-(3-chloro-4-fluorophenyl)cyclopropane-1-carboxamido)-3-fluoro-N-(2,2,3,3,3-pentafluoropropyl)benzamide], the pest or weed control at 50 µg/cm2 in data set [1] (setting [4]) and in data set [2] (setting [5]) was 50 to 100% throughout. The YFM rating result in data set [3] (Yellow Fever Mosquito) is reported as “A (80–100)”.
Turning to `O=C(Nc1ccc(F)c(NC(=O)C(F)F)c1F)c1cc(NC(=O)[C@H]2[C@H](c3ccc(Cl)c(Cl)c3)C2(Cl)Cl)ccc1Cl` [F1065, 2-Chloro-5-((1R,3R)-2,2-dichloro-3-(3,4-dichlorophenyl)cyclopropane-1-carboxamido)-N-(3-(2,2-difluoroacetamido)-2,4-difluorophenyl)benzamide], the pest or weed control at 50 µg/cm2 in data set [1] (setting [6]) and in data set [2] (setting [7]) was 50 to 100% each time. For the same molecule, the YFM entry in data set [3] (setting [8]) is recorded as “A (80–100)”.
With `CC(=O)Nc1ccc(NC(=O)c2cc(NC(=O)[C@H]3[C@H](c4ccc(Cl)c(Cl)c4)C3(Cl)Cl)ccc2Cl)c(C)c1` (relative stereo) [F1059, trans-N-(4-Acetamido-2-methylphenyl)-2-chloro-5-(2,2-dichloro-3-(3,4-dichlorophenyl)cyclopropane-1-carboxamido)benzamide], the pest or weed control at 50 µg/cm2 in data set [1] (setting [6]) and in data set [2] (setting [7]) was 50 to 100% each time. Moreover, in data set [3] (setting [8]), the YFM result is “A (80–100)”.
As to `Nc1c(F)ccc(NC(=O)c2cc(NC(=O)[C@H]3[C@H](c4ccc(I)cc4)C3(Cl)Cl)ccc2Cl)c1F` (relative stereo) [F1140, trans-N-(3-Amino-2,4-difluorophenyl)-2-chloro-5-(2,2-dichloro-3-(4-iodophenyl)cyclopropane-1-carboxamido)benzamide], the pest or weed control at 50 µg/cm2 in data set [1] (setting [6]) and in data set [2] (setting [7]) was 50 to 100% throughout. Moreover, in data set [3] (setting [8]), the YFM entry was “A (80–100)”.
Turning to `Cc1cc(NC(=O)[C@H]2[C@H](c3ccc(F)c(Cl)c3)C2(Cl)Cl)cc(C(=O)NCC(F)(F)F)c1F` (relative stereo) [F2030, trans-5-(2,2-Dichloro-3-(3-chloro-4-fluorophenyl)cyclopropane-1-carboxamido)-2-fluoro-3-methyl-N-(2,2,2-trifluoroethyl)benzamide], the pest or weed control at 50 µg/cm2 in data set [1] (setting [4]) and in data set [2] (setting [5]) was 50 to 100% in each case. Also, the YFM rating result in data set [3] (Yellow Fever Mosquito) is on record as “A (80–100)”.
On to `CC(=O)Nc1c(F)cc(F)c(NC(=O)c2cc(NC(=O)[C@H]3[C@H](c4cc(Cl)cc(Cl)c4)C3(Cl)Cl)ccc2Cl)c1F` [F1628, N-(3-Acetamido-2,4,6-trifluorophenyl)-2-chloro-5-((1R,3R)-2,2-dichloro-3-(3,5-dichlorophenyl)cyclopropane-1-carboxamido)benzamide], for which the pest or weed control at 50 µg/cm2 in data set [1] (setting [9]) and in data set [2] (setting [10]) was 50 to 100% each time. The YFM entry in data set [3] (setting [11]) is “A (80–100)”.
As to `Nc1c(F)ccc(NC(=O)c2cc(NC(=O)[C@H]3[C@H](c4ccc(F)cc4)C3(Cl)Cl)ccc2Cl)c1F` (relative stereo) [F1592, trans-N-(3-Amino-2,4-difluorophenyl)-2-chloro-5-(2,2-dichloro-3-(4-fluorophenyl)cyclopropane-1-carboxamido)benzamide], the pest or weed control at 50 µg/cm2 in data set [1] (setting [9]) and in data set [2] (setting [10]) was 50 to 100% each time. For the same molecule, in data set [3] (setting [11]), the YFM result is recorded as “A (80–100)”.
Take `CC(=O)Nc1c(F)ccc(NC(=O)c2cc(NC(=O)[C@H]3[C@H](c4cc(C(F)(F)F)cc(C(F)(F)F)c4)C3(Cl)Cl)ccc2Cl)c1F` (relative stereo) [F1803, trans-N-(3-Acetamido-2,4-difluorophenyl)-5-(3-(3,5-bis(trifluoromethyl)phenyl)-2,2-dichlorocyclopropane-1-carboxamido)-2-chlorobenzamide]: the pest or weed control at 50 µg/cm2 in data set [1] (setting [4]) and in data set [2] (setting [5]) was 50 to 100% throughout. In addition, the YFM rating result in data set [3] (Yellow Fever Mosquito) is on record as “A (80–100)”.
In the case of `Nc1c(F)ccc(NC(=O)c2cc(NC(=O)[C@H]3[C@H](c4cccc(I)c4)C3(Cl)Cl)ccc2Cl)c1F` (relative stereo) [F1141, trans-N-(3-Amino-2,4-difluorophenyl)-2-chloro-5-(2,2-dichloro-3-(3-iodophenyl)cyclopropane-1-carboxamido)benzamide], the pest or weed control at 50 µg/cm2 in data set [1] (setting [6]) and in data set [2] (setting [7]) was 50 to 100% each time. For the same molecule, the YFM entry in data set [3] (setting [8]) is listed as “A (80–100)”.
Regarding `O=C(Nc1ccc(F)c(NC(=O)C(F)(F)C(F)F)c1F)c1cc(NC(=O)[C@H]2[C@H](c3ccc(F)c(C(F)(F)F)c3)C2(Cl)Cl)ccc1Cl` [F1301, 2-Chloro-5-((1R,3R)-2,2-dichloro-3-(4-fluoro-3-(trifluoromethyl)phenyl)cyclopropane-1-carboxamido)-N-(2,4-difluoro-3-(2,2,3,3-tetrafluoropropanamido)phenyl)benzamide], the pest or weed control at 50 µg/cm2 in data set [1] (setting [6]) and in data set [2] (setting [7]) was 50 to 100% in each case. For the same molecule, in data set [3] (setting [8]), the YFM entry was “A (80–100)”.
